According to patent publication US9862684B2, “Modulation of K2P channels” (The Regents of the University of California, priority 2013, dated 2018):

Experiments:
[1] = molecular target: T1, K2P9.1 (TASK-3) (Mus musculus, UniProt Q3LS21); assay: Two-electrode voltage clamp, Xenopus oocytes expressing K2P9.1 (TASK-3); type: cell-based, Murine
T1 construct: expressed in transfected cells; host or cells: Xenopus oocytes
Description: FIG. 7 ML67-33 is a selective activator of heat- and mechanosensitive K2P channels. a-f, Exemplar I-V curves showing the effect of ML67-33 on a, K2P10.1 (TREK-2), b, K2P4.1 (TRAAK), c, K2P3.1 (TASK-1), d, K2P9.1 (TASK-3), e, K2P5.1 (TASK-2), and f, K2P18.1 (TRESK) measured in Xenopus oocytes in 2 mM [K^+]o pH 7.4. Currents were elicited by a voltage ramp from −150 to 50 mV, from a holding potential of −80 mV. g, Quantification of the effect of ML67-33 on the indicated channels. Data (mean±s.e., n≧6, N≧2) was normalized to basal channel activity and fitted to the Hill equation. […] Error bars indicate s.e., n≧6, N≧2.
Murine K2P channels were cloned into pGEMHE/pMO {Bagriantsev, 2011}, IRES-GFP (Invitrogen), or pYES2-MET25 (high copy 2μ, URA3) {Minor, 1999} for expression in oocytes, HEK-293T cells, and yeast, respectively, using standard molecular biology procedures, and verified by DNA sequencing.
Two-electrode voltage clamp recordings were performed from defolliculated stage V-VI Xenopus oocytes 24-48 hours after injection with 0.015-6.0 ng cRNA, using microelectrodes (0.3-3.0 MΩ) filled with 3M KCl. Data was acquired using the GeneClamp 500B (MDS Analytical Technologies) amplifier controlled by the pClamp software (Molecular Devices), and digitized at 1 kHz using Digidata 1332A (MDS Analytical Technologies). Recording solutions (mM): 2K (96 NaCl, 2 KCl, 1.8 CaCl2, 2 MgCl2), 90K (90 KCl, 8 NaCl, 1.8 CaCl2, 2 MgCl2), were buffered 5 mM HEPES pH 7.4. For K2P recordings, currents we elicited by a 1 second long ramp from −150 to +50 mV from a holding potential of −80 mV (2K), or −100 to +50 mV from a holding potential of 0 mV (90K). For KCNQ2 recordings, currents were elicited by a step protocol from −120 to 60 mV, in 20 mV increments, from a holding potential of −80 mV. Patch-clamp recordings from HEK-293T cells were performed using microelectrodes (2-3 MΩ) filled with 1M KCl. Data was acquired using the Axopatch 200B amplifier controlled by pClamp software, and digitized at 1 kHz using Digidata 1332A. […]

[2] = molecular target: T2, K2P2.1 (TREK-1) (Mus musculus, UniProt P97438); assay: Excised membrane patches (outside-out, inside-out) from HEK-293T cells expressing K2P2.1 (TREK-1); type: cell-based, Murine
T2 construct: expressed in transfected cells; host or cells: Xenopus oocytes (cRNA injection, pGEMHE/pMO)
T2 sequence (P97438 1-411 isoform P97438-2): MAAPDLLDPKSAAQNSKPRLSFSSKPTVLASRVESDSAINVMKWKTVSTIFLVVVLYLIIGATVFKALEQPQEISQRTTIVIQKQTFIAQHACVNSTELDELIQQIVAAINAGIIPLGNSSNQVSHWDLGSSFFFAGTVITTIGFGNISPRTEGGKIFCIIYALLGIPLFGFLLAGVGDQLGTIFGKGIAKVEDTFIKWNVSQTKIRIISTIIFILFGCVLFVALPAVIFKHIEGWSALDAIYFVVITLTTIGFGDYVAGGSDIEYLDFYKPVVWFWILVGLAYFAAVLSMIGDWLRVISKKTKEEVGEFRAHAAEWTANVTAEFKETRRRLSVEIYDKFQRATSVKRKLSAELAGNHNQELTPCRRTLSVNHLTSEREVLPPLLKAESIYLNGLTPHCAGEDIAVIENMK
Description: FIG. 5 ML67-33 activates K2P2.1 (TREK-1) in excised membrane patches a, and b, exemplar I-V curves showing the effect of ML67-33 on K2P2.1 (TREK-1) in a, outside-out and b, inside-out excised patches from HEK-293T cells; currents were elicited by a voltage ramp from −100 to 50 mV from a holding potential of −40 mV. c, Exemplar channel responses to ML67-33 measured at 0 mV in the indicated configurations. Grey region indicates presence of 20 μM ML67-33. d, Times of half-maximal activation following ML67-33 application and recovery from activation (wash) following ML67-33 removal, measured in HEK-293T cells at 0 mV. Error bars: mean±s.e. n≧6, N≧2. ‘**’ indicates p≦0.01 and ‘N.S.’ indicates not significant (p≧0.05) as determined by t-test analysis.
Two-electrode voltage clamp recordings were performed from defolliculated stage V-VI Xenopus oocytes 24-48 hours after injection with 0.015-6.0 ng cRNA, using microelectrodes (0.3-3.0 MΩ) filled with 3M KCl. Data was acquired using the GeneClamp 500B (MDS Analytical Technologies) amplifier controlled by the pClamp software (Molecular Devices), and digitized at 1 kHz using Digidata 1332A (MDS Analytical Technologies). Recording solutions (mM): 2K (96 NaCl, 2 KCl, 1.8 CaCl2, 2 MgCl2), 90K (90 KCl, 8 NaCl, 1.8 CaCl2, 2 MgCl2), were buffered 5 mM HEPES pH 7.4. For K2P recordings, currents we elicited by a 1 second long ramp from −150 to +50 mV from a holding potential of −80 mV (2K), or −100 to +50 mV from a holding potential of 0 mV (90K). For KCNQ2 recordings, currents were elicited by a step protocol from −120 to 60 mV, in 20 mV increments, from a holding potential of −80 mV. Patch-clamp recordings from HEK-293T cells were performed using microelectrodes (2-3 MΩ) filled with 1M KCl. Data was acquired using the Axopatch 200B amplifier controlled by pClamp software, and digitized at 1 kHz using Digidata 1332A. Recording solutions (mM): intracellular (145 KCl, 5 EGTA, 3 MgCl2,) extracellular (150 NaCl, 5 KCl, 3 MgCl2, 1 CaCl2) were buffered with 5 mM HEPES pH 7.2 and 7.4, respectively. Currents were elicited by a 1 second long ramp from −150 to +50 mV from a holding potential of −80 mV. Data were fitted with a modified Hill's equation: I=Imin+(Imax−Imin)/(1+10^((Log EC50−Log [C])*H)), where Imax and Imin are maximal and minimal current values, respectively, EC50 is a half-maximal effective concentration of the compound, and H is the Hill coefficient.
To understand the mechanism of action of ML67-33, we examined how it affected K2P2.1 (TREK-1) expressed in two widely-used experimental systems, Xenopus oocytes and mammalian cells. […] Further, the effects of ML-67-33 were fast, occurring within seconds (half-maximal activation time, 4.1±0.5 s, mean±s.e., n=7, N=2) and were reversible upon washout (FIG. 4d). […] The times of half-maximal activation and return to baseline following compound washout (t1/2act and t1/2wash, respectively) in the outside-out configuration were indistinguishable from the same parameters measured in the whole-cell configuration (t1/2act:t1/2wash, mean±s.e. 4.1±0.5 s:3.9±0.5 s and 4.6±0.9 s:3.1±0.7 s for whole-cell and outside-out, respectively, FIGS. 5c and d). In stark contrast, both t1/2 values slowed substantially when the compound was applied to the inside-out configuration.

T1 sequence (Q3LS21 whole entry): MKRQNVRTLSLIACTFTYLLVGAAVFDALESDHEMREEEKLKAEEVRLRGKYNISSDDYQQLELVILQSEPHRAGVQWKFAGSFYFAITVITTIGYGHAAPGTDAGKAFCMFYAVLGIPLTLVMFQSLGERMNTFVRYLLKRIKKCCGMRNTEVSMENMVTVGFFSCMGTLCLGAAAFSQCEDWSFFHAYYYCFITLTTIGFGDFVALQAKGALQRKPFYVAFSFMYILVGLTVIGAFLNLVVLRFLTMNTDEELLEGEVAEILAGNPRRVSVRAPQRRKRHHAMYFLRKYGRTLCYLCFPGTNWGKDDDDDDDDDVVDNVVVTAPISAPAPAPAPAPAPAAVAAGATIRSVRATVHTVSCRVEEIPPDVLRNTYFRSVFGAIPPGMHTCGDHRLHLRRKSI

CC1(C)c2cc(Cl)ccc2N(CCc2nnn[nH]2)c2ccc(Cl)cc21 [ML67-33, 2,7-dichloro-9,9-dimethyl-10-[2-(1H-tetrazol-5-yl)ethyl]acridine]
functional effect (in words) ([1]; applied at 100 μM): little or no functional effects
Emax at 100 μM ([1]; at 100 μM (FIG. 7 legend)): 2.0±0.1
Emax (fold) at 150 μM ([1]; at 150 μM): 2.1 ± 0.4 at 150 μM fold
t1/2act ([2]; inside-out patch): 10.8 ± 1.3 s
t1/2wash ([2]; inside-out patch): 22.0 ± 5.1 s
effect on K2P2.1 (TREK-1) in excised patches (in words) ([2]; outside-out and inside-out configurations): activated
t1/2act ([2]; outside-out patch): 4.6 ± 0.9 s
t1/2wash ([2]; outside-out patch): 3.1 ± 0.7 s
